Our source for the TGI values is PubChem BioAssay (NCI).

Holding throughout (assay): NCI anticancer screen, dose series, 48 h
In assay [1] the test system is LOX IMVI melanoma.
Assay [2] deals with A498 renal.
Assay [3] has as its system SNB-19 CNS.
In assay [4] the test system is RXF 393 renal.
The test system of assay [5] is SR leukemia.
Assay [6] relates to UACC-62 melanoma.
Assay [7] has as its system SK-MEL-2 melanoma.
The test system of assay [8] is EKVX NSCLC.
Assay [9] has as its system NCI-H226 lung.
Assay [10] deals with HCT-116 colon.
The subject of assay [11] is KM12 colon.
Assay [12] has as its system SN12C renal.
For assay [13], the system named is HT29 colon.
The subject of assay [14] is HOP-62 NSCLC.
The test system of assay [15] is SNB-75 CNS.
For assay [16], the system named is SK-OV-3 ovarian.
Assay [17] concerns HS 578T breast.
The test system of assay [18] is SW-620 colon.
Assay [19] has as its system MDA-N.

SMILES strings stand for the structures.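 1) Cells in 96-well plates. 2) Compound, 48 h, 5 concentrations. 3) Linear interpolation between surrounding doses. 4) Unreached endpoint = highest concentration. TGI: total growth inhibition.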

As for `CC1=NN(c2ccccc2)C(=O)C1C(=O)C(=O)Nc1ccc(C)cc1C` (stereo not drawn), the TGI in assay [1], in assay [2], in assay [3], in assay [4], in assay [5] and in assay [6] was greater than 100 µM throughout. Further, the TGI in [7], in [8], in assay [9], in assay [10], in assay [11] and in [12] was greater than 100 µM in each case. In addition, the TGI in assay [13], in [14], in [15], in assay [16], in [17] and in assay [18] was greater than 100 µM in each case.

For the compound `C=CCn1c(=S)sc2c(=O)[nH]cnc21`, the TGI in assay [1], in [2], in [3], in [5], in assay [6] and in assay [7] was greater than 100 µM throughout. Besides, the TGI in assay [8], in assay [10], in [11], in [12], in assay [13] and in [14] was greater than 100 µM in each case. Moreover, the TGI in assay [15], in assay [16] and in assay [18] was greater than 100 µM in each case.

Regarding `COc1ccc(C2S/C(=C\c3cccc([N+](=O)[O-])c3)C(=O)N2NC(=O)Cc2ccccc2)cc1` (stereo not drawn), the TGI in [1], in assay [2], in assay [4], in [5], in [6] and in [7] was greater than 100 µM throughout. For the same compound, the TGI in assay [9], in [10], in assay [11], in assay [12], in assay [13] and in [14] was greater than 100 µM in each case. In addition, the TGI in assay [15], in assay [16] and in [18] was greater than 100 µM each time.

For the compound `CC1(C)OC([C@H](O)CO)C([C@H]2NCCS2)O1` (stereo partly drawn), the TGI in [1], in [2], in assay [3], in assay [4], in [5] and in assay [6] was greater than 100 µM throughout. The TGI in [7], in assay [8], in assay [9], in assay [10], in assay [11] and in [13] was greater than 100 µM throughout. The TGI in assay [14], in assay [15], in assay [16], in assay [17] and in assay [18] was greater than 100 µM in each case.

Regarding `Cn1c(C2CC(C)(C)c3c2c2ccccc2n3C)cc2ccccc21` (stereo not drawn), the TGI in [1], in assay [3], in assay [4], in assay [5], in assay [6] and in assay [7] was greater than 304 µM throughout. Besides, the TGI in [8], in assay [9], in assay [10], in assay [11], in [12] and in [13] was greater than 304 µM throughout. For the same compound, the TGI in [14], in assay [16] and in assay [18] was greater than 304 µM throughout.

Turning to `CC(C)(Cc1ccccc1)Cc1cc(O)ccc1O`, the TGI is 26.8 µM in [1]; 47.6 µM in assay [2]; 48.7 µM in assay [3]; 28.9 µM in assay [4]; 27.7 µM in [5]; 61.8 µM in assay [6]. The TGI amounted to 56.6 µM in [19]; 65.8 µM in [8]; 97.8 µM in assay [9]; 31.6 µM in assay [10]; 32.1 µM in assay [11]; 41.3 µM in [12]. Further, the TGI in [13] came out at 48.5 µM; in [14] it was 64.3 µM; in assay [15], 68.1 µM; in assay [16], 71 µM; in [18], 49.6 µM.

In the case of `COC(=O)[C@]1(C)CCC[C@]2(C)C3CC4OOC3(C=C4C(C)C)CCC21` (stereo partly drawn), the TGI is 11.5 µM in assay [1]; 23.5 µM in assay [2]; 31.3 µM in [3]; 26.6 µM in [5]; 32.3 µM in [6]; 31.5 µM in assay [7]. Moreover, the TGI amounted to 30.4 µM in assay [8]; 35.4 µM in assay [9]; 29 µM in [10]; 32.4 µM in assay [11]; 31.7 µM in assay [12]; 29.4 µM in assay [13]. Besides, the TGI worked out at 61.5 µM in assay [14], 34.4 µM in assay [16] and 34.8 µM in assay [18].

As for `O=C1CSc2ccncc2N1`, the TGI in [1], in assay [2], in assay [3], in [4], in assay [5] and in assay [6] was greater than 100 µM in each case. Besides, the TGI in assay [7], in assay [8], in assay [9], in [10], in [12] and in assay [13] was greater than 100 µM throughout. The TGI in [14], in assay [15] and in assay [18] was greater than 100 µM throughout.

Regarding `N.N.N.N.O=S(=O)([O-])[O-].[Co+3].[OH3+].[OH3+]`, the TGI in assay [1], in [2], in assay [3], in assay [6], in assay [7] and in assay [8] was greater than 100 µM throughout. Moreover, the TGI in [10], in assay [11], in assay [12], in [13], in [14] and in assay [15] was greater than 100 µM in each case. Moreover, the TGI in assay [16] and in assay [18] was greater than 100 µM throughout.

As to `COC(=O)c1c/c(=N\NC(=O)CC(=O)Nc2ccc(C)cc2)c2ccccc2o1`, the TGI in [1], in assay [2], in assay [3], in assay [4], in assay [5] and in assay [6] was greater than 100 µM in each case. The TGI in [7], in assay [8], in assay [9], in [10], in assay [11] and in assay [12] was greater than 100 µM in each case. Besides, the TGI in assay [13], in assay [14], in [15], in [16] and in assay [18] was greater than 100 µM throughout.

As for `COC1=CC(=O)C2[C@H]3Cc4ccccc4[C@H]3C2(C)C1=O` (stereo partly drawn), the TGI in assay [1], in assay [2], in assay [3], in [4], in assay [5] and in [6] was greater than 100 µM in each case. Further, the TGI in assay [7], in assay [8], in [9], in [11], in assay [13] and in assay [14] was greater than 100 µM each time. The TGI in assay [15], in [16] and in assay [18] was greater than 100 µM in each case.

For the compound `CC(C)(C)C1=NN=C2c3ccccc3C(=O)C21` (stereo not drawn), the TGI in assay [1] was greater than 100 µM; in assay [2], 99.5 µM; in assay [3], greater than 100 µM; in assay [4] it was greater than 100 µM; in assay [5] it was 83 µM; in [6] it was greater than 100 µM. Further, the TGI in assay [7], in [8], in [9], in assay [10], in [11] and in [12] was greater than 100 µM each time. The TGI in [13] is greater than 100 µM; in [14], greater than 100 µM; in assay [15] it was greater than 100 µM; in [17] it was 82.1 µM; in assay [18] it was greater than 100 µM.

As for `Clc1ccc(N=Cc2cc3cc(Br)ccc3nc2Cl)cc1`, the TGI was greater than 50 µM in assay [1]; greater than 50 µM in assay [4]; 42.2 µM in assay [5]; 48.3 µM in assay [7]; greater than 50 µM in assay [19]; greater than 50 µM in assay [8]. Moreover, the TGI in [9], in [10], in [11], in assay [12], in [13] and in assay [15] was greater than 50 µM each time. The compound also displayed a TGI in [18] greater than 50 µM.

Regarding `O=C(NC1CCN(Cc2ccccc2)CC1)c1ccccc1I`, the TGI in [1] was 32.6 µM; in assay [2], greater than 100 µM; in [3] it was greater than 100 µM; in assay [4], greater than 100 µM; in assay [5], greater than 100 µM; in [6] it was 34.9 µM. The TGI was 48.7 µM in assay [7]; greater than 100 µM in assay [8]; 72.8 µM in [9]; 31.1 µM in [10]; 34.6 µM in [11]; greater than 100 µM in assay [12]. Besides, the TGI in [13] was 34.8 µM; in assay [14], 37.9 µM; in assay [16], 43.6 µM; in assay [17] it was 50.2 µM; in [18] it was 38.9 µM.

As for `CCCN1CN(C(C(=O)N[C@@H]2C(=O)N3C(C(=O)O)=C(C)CSC23)c2ccccc2)CSC1=S` (stereo partly drawn), the TGI is greater than 100 µM in [1]; greater than 100 µM in assay [2]; greater than 100 µM in assay [3]; 82.5 µM in assay [4]; greater than 100 µM in [6]; greater than 100 µM in [7]. For the same compound, the TGI in assay [8], in [10], in assay [11], in assay [12], in assay [13] and in assay [14] was greater than 100 µM each time. Also, the TGI in assay [15] and in assay [16] was greater than 100 µM each time.

As for `COc1ccc(-n2nnnc2C2(Nc3ccccc3)CCN(Cc3ccccc3)CC2)cc1`, the TGI was 24 µM in assay [1]; 48.7 µM in assay [2]; 68.5 µM in assay [3]; 33.8 µM in assay [4]; greater than 100 µM in assay [5]; 31.1 µM in [6]. The TGI in assay [8] was 92 µM; in [9], greater than 100 µM; in assay [10] it was 26.2 µM; in assay [11] it was 18.8 µM; in [12], 28 µM; in assay [13] it was 21.3 µM. The TGI was 56.2 µM in assay [14]; 44.7 µM in assay [15]; 86.2 µM in assay [16]; 28.8 µM in assay [17]; 38.3 µM in [18].

Take `O=C1C=Cc2c(I)sc(I)c21`: the TGI in assay [1] was 25.2 µM; in [2], greater than 100 µM; in assay [4], 40.3 µM; in [5] it was 27 µM; in assay [6], greater than 100 µM; in assay [7], 64.4 µM. In addition, the TGI in assay [19] is 87.2 µM; in [8], 83.9 µM; in assay [9] it was greater than 100 µM; in assay [10], 33.1 µM; in assay [11] it was 50 µM; in assay [12], 45.7 µM. In addition, the TGI in [13] was 68.4 µM; in assay [14] it was greater than 100 µM; in assay [15] it was 87.4 µM; in assay [16] it was greater than 100 µM; in assay [18] it was 38.1 µM.

In the case of `COc1ccc(C2C3=C(CCCC3=O)N(c3ccccc3)C3=C2C(=O)CCC3)cc1`, the TGI was greater than 100 µM in assay [1]; greater than 100 µM in assay [2]; greater than 100 µM in assay [3]; 78.7 µM in assay [4]; greater than 100 µM in assay [5]; greater than 100 µM in [6]. Also, the TGI in assay [8], in assay [9], in assay [11], in assay [12], in assay [13] and in assay [15] was greater than 100 µM each time. For the same compound, the TGI in [16], in [17] and in assay [18] was greater than 100 µM each time.
